# Data as given in patent publication US10973810B2, “Methods for the treatment of neurological disorders” (Yumanity Therapeutics, Inc., priority 2017, dated 2021).
# What was measured:
# [1] = tested on: alpha-synuclein (A53T) transfected rat cortical neurons; assay: Neurite degeneration assay in transfected rat cortical neurons; assay type: cell-based
# Method: Rat primary cortical neurons cultured in 96-well plates (Greiner Bio-One) were co-transfected with a fluorescence reporter plasmid (encoding mKate2) and empty or alpha-synuclein-A53T overexpression plasmids by lipofection at 5-6 div (days in vitro). LIPOFECTAMINE® 2000 transfection reagent (Thermo Fisher) (0.5 μl/well) was diluted in NEUROBASAL® media (Thermo Fisher) and incubated for 5-10 min. The LIPOFECTAMINE®/NEUROBASAL® mixture was then added dropwise to a plasmid cocktail diluted in NEUROBASAL® media, and incubated for approximately 40 min. During this time, conditioned media on the neurons was replaced with media containing 1× kynurenic Acid (Sigma-Aldrich) in NEUROBASAL® media (NBKY). LIPOFECTAMINE®/DNA complex solutions were subsequently added dropwise to neurons in the NBKY media in the 96-well plate. Lipofection was carried out for 30-40 min in a standard cell culture incubator (37° C., 5% CO2). Neurons were then washed with NEUROBASAL® media, and 50% conditioned/50% fresh NEUROBASAL® media containing B-27 supplement and GlutaMax™ (Thermo Fisher) (NBM) was applied to the cultures.
# Transfected rat cortical neuron cultures were treated with DMSO or CAY10566 compound 4-6 h post-transfection. […] Neurite lengths of transfected neurons were tracked by an RFP reporter, mKate2, and measured by NeuroTrack™ Software Module (Essen Bioscience). […]
# yeast OLE1 = target: T1, yeast OLE1 (Saccharomyces cerevisiae, UniProt P21147, L450T/T449L); assay: Growth of yeast surviving solely on yeast OLE1; assay type: cell-based; conditions: 24 h
# T1 construct: expressed in transfected cells; host or cells: S. cerevisiae ole1Δ strain (W303 pdr1Δ pdr3Δ background), plasmid pRS316 with TDH3 promoter and CYC1 terminator
# T1 sequence (P21147 whole entry T449L/L450T): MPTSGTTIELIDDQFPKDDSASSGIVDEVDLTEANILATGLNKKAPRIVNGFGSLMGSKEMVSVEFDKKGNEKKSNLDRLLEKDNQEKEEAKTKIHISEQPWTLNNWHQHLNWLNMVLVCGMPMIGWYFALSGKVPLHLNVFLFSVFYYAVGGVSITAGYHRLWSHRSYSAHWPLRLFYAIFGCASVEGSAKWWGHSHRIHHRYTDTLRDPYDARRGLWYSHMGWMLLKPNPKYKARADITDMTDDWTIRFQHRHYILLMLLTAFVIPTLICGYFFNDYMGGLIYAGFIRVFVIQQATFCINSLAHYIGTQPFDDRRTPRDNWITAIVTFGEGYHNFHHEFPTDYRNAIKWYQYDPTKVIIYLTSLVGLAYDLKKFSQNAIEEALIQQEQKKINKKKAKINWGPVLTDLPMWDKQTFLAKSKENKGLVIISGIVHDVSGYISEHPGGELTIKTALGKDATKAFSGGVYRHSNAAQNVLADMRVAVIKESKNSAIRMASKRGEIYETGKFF
# From the text: To generate yeast strains expressing SCD1 or SCD5 as the sole desaturase, the human SCD1 and SCD5 genes were cloned from cDNAs (Harvard PlasmID database Clone ID HsCD00340237 for SCD1 and HsCD00342695 for SCD5) into yeast plasmid pRS316 (ATCC 77145) between the yeast TDH3 promoter and the CYC1 terminator. The coding sequence of yeast OLE1 was also cloned into this plasmid). These clones were then transformed into the ole1d strain and plated on CSM-Ura media (CSM lacking uracil) with 2% glucose (w/v) and independent colonies were isolated and amplified.
# For experiments using a plasmid-borne copy of Ole1, SCD1, or SCD5 (FIGS. 3B, 6, and 7), media lacking uracil (SX-Ura, where X is glucose, raffinose, or galactose), was used for all steps of the compound profiling protocol to ensure its maintenance throughout the assay.
# After yeast delivery, assay plates were incubated under humidified conditions at 30° C. for 24 to 40 h. ApoE4 rescue experiments were stopped at 24 h, aSyn experiments at 40 h, Ole1 at 24 h, and SCD1/SCD5 at 40 h. The growth of yeast was monitored by reading the OD600 of each well using a microplate reader (Perkin Elmer EnVision™). For model rescue experiments, raw data were processed by background subtracting and calculating a fold-change relative to DMSO control [(EXP-0.035)/(DMSO-0.035)—where 0.035 is the OD600 contributed by an empty well containing 30 μL of media alone]. For growth inhibition of wild-type cells, raw data were processed by background subtracting and converting values to a percent of the nontreated condition for that strain [(EXP-0.035)/(DMSO-0.035)×100%].
# [2] = tested on: alpha-synuclein transfected U2OS cells; assay: U2OS ATP assay of alpha-synuclein toxicity; assay type: cell-based, human; conditions: 72 h after transfection/treatment; titration; normalized to DMSO control
# Method: U2OS cells were transfected with empty vector control (“pcDNA”) or alpha-synuclein (“α-synuclein/pcDNA”) in combination with a scrambled (SCR) siRNA control (50 nM), or human SCD5 siRNA (10, 25 or 50 nM). (FIG. 12A) Cellular heath was assessed 48 h after transfection by evaluating ATP levels. Cell toxicity in the alpha-synuclein plus SCR siRNA was set as the floor of the assay, and then all samples were normalized to pcDNA with […] (set to 100%) to calculate the normalized percent rescue. Bars depict mean values of triplicate determinations; error bars indicate standard deviation. A two-tailed t-test was used to compare control conditions with SCR or SCD5 siRNA (*p 0.05). Cells transfected with alpha-synuclein were analyzed together by ANOVA with Dunnett's post-test to correct for multiple comparisons (**p 0.01, ****p 0.0001). Significance is shown for the comparison of each alpha-synuclein plus SCD5 siRNA concentration compared against the alpha-synuclein plus SCR control. (FIG. 12B) Quantitative RT-PCR was utilized to confirm the levels of SCD5 mRNA. […]
# Powders of reference SCD inhibitors (CAY10566, A939572 and MF-438) were resuspended and serial diluted in DMSO. […] ATP content was then measured using the CellTiter-Glo® kit (Promega) with luminescence signals measured on an EnVision multimode plate reader (Perkin Elmer).
compound,measurement,setting,value
Cc1nnc(-c2ccc(N3CCC(Oc4cc(F)ccc4Cl)CC3)nn2)o1 [CAY10566],neurite degeneration at highest concentrations,"[1]; 10 nM and 3 nM, overlapping with control cultures not transfected with alpha-synuclein A53T",complete rescue
same,neurite degeneration,"[1]; titration from 10 nM down to 10 pM, tracked every 6 h for 7 d, relative to DMSO",concentration-dependent decrease in neurite degeneration
same,growth of yeast strain expressing Ole1 (percent of DMSO-treated condition),yeast OLE1,resistant
same,cellular ATP levels in alpha-synuclein transfected U2OS cells,[2],significantly reversed alpha-synuclein-dependent decreases in ATP levels
